Molecules are shown by their SMILES.

In BindingDB's records for aid1799746 (Csar, 2012) one finds Kd data, which are given here for nine compounds.

The assay deals with T1, UDP-3-O-acyl-N-acetylglucosamine deacetylase (Aquifex aeolicus (strain VF5), UniProt O67648).
T1 sequence (O67648 whole entry): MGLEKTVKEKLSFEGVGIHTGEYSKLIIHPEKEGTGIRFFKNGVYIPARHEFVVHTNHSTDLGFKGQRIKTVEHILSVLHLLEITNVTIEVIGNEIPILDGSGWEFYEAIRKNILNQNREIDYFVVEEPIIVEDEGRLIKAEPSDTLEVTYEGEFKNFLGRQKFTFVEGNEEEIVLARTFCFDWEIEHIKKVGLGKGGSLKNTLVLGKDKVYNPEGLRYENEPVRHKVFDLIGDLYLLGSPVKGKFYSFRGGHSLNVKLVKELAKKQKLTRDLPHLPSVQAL
In words: ITC. The conditions noted are these: pH 7; 25 °C.

As to `NC[C@H](NC(=O)c1ccc(-c2ccc(Br)cc2)cc1)C(=O)NO` [CS250], binding was put at a Kd of 242 nM.

In the case of `NC[C@H](NC(=O)c1ccc(-c2ccccc2)cc1)C(=O)NO` [CS249], the Kd is 732 nM. This Kd is about 3-fold higher than that of the compound before.

Compound `O=C(NO)[C@H]1COC(c2ccc(F)c(C(F)(F)F)c2)=N1` [CS271] gave a Kd of 3960 nM. Compared with the last compound, the Kd is about 5.4-fold higher.

With `C[C@@H](O)[C@H](NC(=O)c1ccc(C#Cc2ccccc2)cc1)C(=O)NO` [CS259], the Kd is 1210 nM.

As to `O=C(NO)[C@H]1COC(c2cc3cc(F)ccc3[nH]2)=N1` [CS272], the Kd was 2250 nM. This Kd is about 1.9-fold higher than that of the compound before.

As to `O=C(NO)[C@H]1COC(c2ccc(F)cc2)=N1` [CS279], the dissociation constant Kd came to 14800 nM. Compared with the last compound, the Kd is about 6.6-fold higher.

As to `O=C(NO)c1csc(-c2ccc(F)c(C(F)(F)F)c2)n1` [CS277], the Kd stood at 3500 nM.

Compound `C[C@@H](O)[C@H](NC(=O)c1ccc(-c2ccc(Br)cc2)cc1)C(=O)NO` [CS258] gave a Kd of 122 nM.

The compound `C[C@@H](O)[C@H](NC(=O)c1ccc(-c2ccccc2)cc1)C(=O)NO` [CS263] had a Kd of 224 nM.
